Common to all, as to assay type: cell-based
For assay [1], the system named is HepG2 (liver cancer). Description: Antiproliferative activity (CCK-8 cell viability), HepG2. Conditions: Homo sapiens, 72 h, read-out: Antiproliferative activity in cancerous cells, HepG2 (inhibition of cell growth); for inhibition at 3.3 µM: Compound concentration: 3.3 μM; for inhibition at 10 µM: Compound concentration: 10 μM. A digest of the protocol: (§1)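 Growth inhibition graded in bands from percent viability against DMSO vehicle, read as CCK-8 absorbance at 450 nm. Compound tested at 3.3, 10 or 30 μM for 72 h, 37 °C; media contained 10% FBS: DMEM for HepG2/SW480, MEM for HeLa, F-12K for A549.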

The test system of assay [2] is MDA-MB-231 (breast cancer). Kind of assay: Antiproliferative activity (CCK-8 cell viability), MDA-MB-231. As to conditions: Homo sapiens, 72 h, read-out: Antiproliferative activity in cancerous cells, MDA-MB-231 (inhibition of cell growth); for inhibition at 3.3 µM: Compound concentration: 3.3 μM; for inhibition at 10 µM: Compound concentration: 10 μM. The method, boiled down:
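Growth inhibition of human MDA-MB-231 breast cancer cells was assessed with a Cell Counting Kit-8. Cells cultured in DMEM plus 10% FBS were seeded at 2,000-5,000 cells/well, treated after attachment, and kept 72 h at 37° C. CCK-8 solution (10 μL) was added for 4 h, and absorbance at 450 nm was compared with DMSO-treated controls.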

For assay [3], the system named is A431 (epidermoid carcinoma). Kind of assay: Antiproliferative activity (CCK-8 cell viability), A431. Conditions: Homo sapiens, 72 h, read-out: Antiproliferative activity in cancerous cells, A431 (inhibition of cell growth); for inhibition at 3.3 µM: A-431, Compound concentration: 3.3 μM; for inhibition at 10 µM: A-431, Compound concentration: 10 μM. The method, boiled down: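 This growth inhibition assay used A431 cells maintained in Dulbecco's modified Eagle's medium plus 10% fetal bovine serum. Cells were seeded in 96-well plates, treated with compound for 72 h at 37° C., and then given 10 μL CCK-8 solution. After a further 4 h, absorbance was read at 450 nm.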

Assay [4] deals with A549 (lung adenocarcinoma). Description: Antiproliferative activity (CCK-8 cell viability), A549. As to conditions: Homo sapiens, 72 h, read-out: Antiproliferative activity in cancerous cells, A549 (inhibition of cell growth); for inhibition at 3.3 µM: Compound concentration: 3.3 μM; for inhibition at 10 µM: Compound concentration: 10 μM. The method, boiled down: as §1
For assay [5], the system named is HeLa (cervical cancer). Description: Antiproliferative activity (CCK-8 cell viability), HeLa. Conditions: Homo sapiens, 72 h, read-out: Antiproliferative activity in cancerous cells, HELA (inhibition of cell growth); for inhibition at 3.3 µM: Compound concentration: 3.3 μM; for inhibition at 10 µM: Compound concentration: 10 μM. A digest of the protocol: as §1
Assay [6] deals with SW480 (colon cancer). Description: Antiproliferative activity (CCK-8 cell viability), SW480. Conditions: Homo sapiens, 72 h, read-out: Antiproliferative activity in cancerous cells, SW480 (inhibition of cell growth); for inhibition at 3.3 µM: Compound concentration: 3.3 μM; for inhibition at 10 µM: Compound concentration: 10 μM. A digest of the protocol:
as §1

Assay [7] deals with B16F10 (malignant melanoma). Description: Antiproliferative activity (CCK-8 cell viability), B16F10. As to conditions: Mus musculus, 72 h, read-out: Antiproliferative activity in cancerous cells, B16F10 (inhibition of cell growth); for inhibition at 3.3 µM: B16-F10, Compound concentration: 3.3 μM; for inhibition at 10 µM: B16-F10, Compound concentration: 10 μM. The method, boiled down:
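Cell growth inhibition was measured in B16F10 malignant melanoma cells with a Cell Counting Kit-8 viability assay. Cells were maintained in DMEM plus 10% fetal bovine serum, seeded at 2,000-5,000 cells/well in 96-well plates, and treated for 72 h at 37° C. Viability was expressed relative to DMSO-treated vehicle control wells.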

Consider eight molecules from US20260184663A1, “INDENE COMPOUNDS, PHARMACEUTICAL COMPOSITIONS THEREOF, AND THEIR THERAPEUTIC APPLICATIONS” (NucMito Pharmaceuticals co. Ltd., priority 2022, published 2026).

Regarding `CC1=C(CC(=O)O)c2cc(C)ccc2/C1=C\c1ccc(COCc2ccc(F)cc2)cc1` [B110, (Z)-2-(1-(4-(((4-Fluorobenzyl)oxy)methyl)benzylidene)-2,5-dimethyl-1H-inden-3-yl)acetic acid], the inhibition at 3.3 µM in assay [1] was under 30%; in assay [2] it was at least 50%; in assay [3] it was 30 to 50%; in assay [4], 30 to 50%; in assay [5], under 30%; in assay [6], under 30%. Further, the inhibition at 3.3 µM in assay [7] is at least 50%. For the same molecule, the inhibition at 10 µM in assay [1] was 30 to 50%; in assay [2] it was at least 50%; in assay [3], at least 50%; in assay [4], at least 50%; in assay [5], at least 50%; in assay [6], at least 50%. The inhibition at 10 µM in assay [7] was at least 50%.

As for `CC1=C(CC(=O)O)c2cc(F)ccc2/C1=C\c1ccc(COCc2ccc(C(F)(F)F)cc2)cc1` [B111, (Z)-2-(5-Fluoro-2-methyl-1-(4-(((4-(trifluoromethyl)benzyl)oxy)methyl)-benzylidene)-1H-inden-3-yl)acetic acid], the inhibition at 3.3 µM is under 30% in assay [1]; 30 to 50% in assay [2]; under 30% in assay [3]; 30 to 50% in assay [4]; at least 50% in assay [5]; under 30% in assay [6]. The inhibition at 3.3 µM in assay [7] lay within 30 to 50%. Besides, the inhibition at 10 µM in assay [1], in assay [2], in assay [3], in assay [4], in assay [5] and in assay [6] was at least 50% each time. The inhibition at 10 µM in assay [7] was at least 50%.

Take `COc1cc(COCc2ccc(/C=C3/C(C)=C(CC(=O)O)c4cc(F)ccc43)cc2)ccc1F` [B113, (Z)-2-(5-Fluoro-1-(4-(((4-fluoro-3-methoxybenzyl)oxy)methyl)benzylidene)-2-methyl-1H-inden-3-yl)acetic acid]: the inhibition at 3.3 µM in assay [1] is under 30%; in assay [2] it was 30 to 50%; in assay [3] it was at least 50%; in assay [4], 30 to 50%; in assay [5], under 30%; in assay [6], under 30%. Besides, in assay [7], the inhibition at 3.3 µM was under 30%. Moreover, the inhibition at 10 µM in assay [1] is under 30%; in assay [2], at least 50%; in assay [3], at least 50%; in assay [4] it was at least 50%; in assay [5], at least 50%; in assay [6], at least 50%. Further, the inhibition at 10 µM in assay [7] was under 30%.

Regarding `CC1=C(CC(=O)O)c2cc(F)ccc2/C1=C\c1ccc(CCCc2ccccc2)cc1` [B114, (Z)-2-(5-Fluoro-2-methyl-1-(4-(3-phenylpropyl)benzylidene)-1H-inden-3-yl)acetic acid], the inhibition at 3.3 µM was at least 50% in assay [1]; under 30% in assay [2]; 30 to 50% in assay [3]; 30 to 50% in assay [4]; at least 50% in assay [5]; at least 50% in assay [6]. Also, the inhibition at 3.3 µM in assay [7] is under 30%. Besides, the inhibition at 10 µM is at least 50% in assay [1]; under 30% in assay [2]; at least 50% in assay [3]; at least 50% in assay [4]; at least 50% in assay [5]; at least 50% in assay [6]. Also, in assay [7], the inhibition at 10 µM is under 30%.

Turning to `CC1=C(CC(=O)O)c2cc(Cl)ccc2/C1=C\c1ccc(COCc2ccc(Cl)cc2)cc1` [B115, (Z)-2-(5-Chloro-1-(4-(((4-chlorobenzyl)oxy)methyl)benzylidene)-2-methyl-1H-inden-3-yl)acetic acid], the inhibition at 3.3 µM is at least 50% in assay [1]; under 30% in assay [2]; at least 50% in assay [3]; 30 to 50% in assay [4]; under 30% in assay [5]; under 30% in assay [6]. In addition, in assay [7], the inhibition at 3.3 µM was in the range of 30 to 50%. Also, the inhibition at 10 µM in assay [1] is at least 50%; in assay [2], under 30%; in assay [3], at least 50%; in assay [4], at least 50%; in assay [5], at least 50%; in assay [6] it was at least 50%. In assay [7], the inhibition at 10 µM is at least 50%.

Turning to `CC1=C(CC(=O)O)c2cc(F)ccc2/C1=C\c1ccc(CCCCc2ccc(F)cc2)cc1` [B116, (Z)-2-(5-Fluoro-1-(4-(4-(4-fluorophenyl)butyl)benzylidene)-2-methyl-1H-inden-3-yl)acetic acid], the inhibition at 3.3 µM in assay [1] is at least 50%; in assay [2], under 30%; in assay [3], at least 50%; in assay [4], 30 to 50%; in assay [5], at least 50%; in assay [6], under 30%. In assay [7], the inhibition at 3.3 µM was in the range of 30 to 50%. Moreover, the inhibition at 10 µM in assay [1] is at least 50%; in assay [2] it was under 30%; in assay [3] it was at least 50%; in assay [4] it was at least 50%; in assay [5], at least 50%; in assay [6], at least 50%. In addition, in assay [7], the inhibition at 10 µM is 30 to 50%.

Regarding `CC1=C(CC(=O)O)c2cc(F)ccc2/C1=C\c1ccc(CCCc2ccc(F)cc2)cc1` [B117, (Z)-2-(5-Fluoro-1-(4-(3-(4-fluorophenyl)propyl)benzylidene)-2-methyl-1H-inden-3-yl)acetic acid], the inhibition at 3.3 µM in assay [1] was at least 50%; in assay [2], under 30%; in assay [3] it was 30 to 50%; in assay [4], 30 to 50%; in assay [5], under 30%; in assay [6], at least 50%. Besides, the inhibition at 3.3 µM in assay [7] is under 30%. Further, the inhibition at 10 µM was at least 50% in assay [1]; under 30% in assay [2]; at least 50% in assay [3]; at least 50% in assay [4]; at least 50% in assay [5]; at least 50% in assay [6]. In addition, the inhibition at 10 µM in assay [7] was at least 50%.

With `COc1ccc2c(c1)C(CC(=O)O)=C(C)/C2=C/c1ccc(COCc2ccc(Cl)cc2)cc1` [B118, (Z)-2-(1-(4-(((4-Chlorobenzyl)oxy)methyl)benzylidene)-5-methoxy-2-methyl-1H-inden-3-yl)acetic acid], the inhibition at 3.3 µM is under 30% in assay [1]; under 30% in assay [2]; at least 50% in assay [3]; 30 to 50% in assay [4]; under 30% in assay [5]; at least 50% in assay [6]. Besides, the inhibition at 3.3 µM in assay [7] was at least 50%. For the same molecule, the inhibition at 10 µM in assay [1] was at least 50%; in assay [2], under 30%; in assay [3], at least 50%; in assay [4] it was at least 50%; in assay [5] it was at least 50%; in assay [6] it was at least 50%. The inhibition at 10 µM in assay [7] is at least 50%.
